Reference: patent publication US8058309B2, “Protein kinase modulators and therapeutic uses thereof” (Novotyr Therapeutics Ltd., priority 2006, dated 2011)
Like-named read-outs stand apart in the source and are kept apart here.

Tests used:
[1] = biological target: T1, IGF1R (Homo sapiens, UniProt P08069); experiment: IGF1R cellular free kinase assay (pGT substrate phosphorylation); format: biochemical; conditions: for Competition with ATP (kinetic studies): elevation of ATP concentration
T1 construct: made in house
Procedure: The general protein-tyrosine kinase substrate, poly(Glu,Tyr) 4:1 (pGT), was coated onto a 96-well Maxisorp plates (Nunc) by adding 125 μl of 0.1 mg/ml pGT in PBS to each well. Plates were sealed and incubated for 16 hours at 37° C., washed once with TBST (10 mM Tris-HCl, pH 7.5, 50 mM NaCl, and 0.1% Triton X-100) and once with DDW, dried for 2-3 hours, and stored at 4° C. […] The plate was then washed with TBS with 0.2% Tween 20 (TBST) and blocked with 0.5% BSA in TBST. Mouse monoclonal anti-phosphotyrosine antibody, conjugated to Horse radish peroxidase (PT-66, 1:50000) was added to the plate. Following incubation for 45 min at room temperature, the plate was washed repeatedly with TBST. Detection was carried out with a color reagent, 2,2′-azido-bis-3-ethylbenzithiazoline-6-sulfonic acid, in citrate-phosphate buffer, pH 4.0, with 0.004% H2O2 for 10 min and monitored at 405 nm, all at room temperature. IC50 values of inhibitors were calculated using the REGRESSION program. The assay was optimized with respect to the amount of IGF-1R (partially purified from cells overexpressing IGF1R), reaction time, and ATP concentration. The signal was linear for 30 min in the range of IGF1R protein concentrations up to 35 ng/well.

[2] = system: A2780 tumors; experiment: Ovarian cancer A2780 xenograft tumor growth; format: in vivo, nude mice; conditions: for Inhibition of ovarian tumor growth, comparative study: A2780, IP once a day, 20 mg/kg (FIG. 13); for Growth inhibition of ovarian cancer A2780 tumors / Growth inhibition of ovarian A2780 tumors: IP, 1/day; for Growth inhibition of ovarian cancer A2780 tumors: 20 mg/kg (FIG. 12); for Growth inhibition of ovarian A2780 tumors: 50 mg/kg
Procedure: Human hormone-refractory prostate cancer PC3 cells (ATCC, 1.5×10^6 cells per mouse) were injected subcutaneously into the right leg of Nude:Hsd mice (purchased from Harlan). Ten days later, when palpable tumors had developed, mice were divided into 3 groups with similar average tumor size. […] The mice treated with compound 7 group were daily injected with compound 7 dissolved in the below described vehicle, and the vehicle-treated group (veh) was daily injected by the vehicle alone. Vehicle included 4.4% DMSO, 1.2% Ethanol and 50% PEG400 in DDW; Groups were composed of 3 mice per group. Dose administered IP was 50 mg/Kg (4 ml/Kg) once a day for one month. The length (l) and the width (w) of the tumors were measured every day and the volumes of the tumors were calculated as follows: v=1w^2/2. Graphs present average volumes of the tumors versus time in days. The procedure was followed for the other described in-vivo studies with the following modifications:
Human ovary cancer A2780 cells (from ECACC, 2×10^6 cells per mouse) were injected subcutaneously into the right leg of female Nude:Hsd mice (purchased from Harlan). Inhibitors were injected IP daily at doses of 20 mg/kg (Exp. 2&3) or 50 mg/kg (Exp. 4) dissolved in 4.4% DMSO, 0.12% EtOH, 50% PEG-400 in DDW at volume of 4 ml/kg. The Veh group received 4.4% DMSO, 0.12% EtOH, 50% PEG-400 in DDW at volume of 4 ml/kg.

[3] = system: NCl-H526; experiment: Proliferation assay NCl-H526; format: cell-based; conditions: Lung, 72 hours
Procedure: (§1) Various cancer cell lines (listed in table 1) were plated at a density of 1000-5000 cells/well in 96-well plates in 90111 growth medium containing 10% FCS, 100 units/ml penicillin and 100 μg/ml streptomycin. Inhibitors were added a day later in 10 μl of 1% DMSO in DDW to obtain final concentrations of 0, 0.1, 0.3, 1, 3, and 10 μM. The final concentration of DMSO (0.1% DMSO) was kept constant in all samples. Medium with inhibitors was refreshed a day and two days later. Following exposure of the cells to the inhibitors for 72 hours at 37° C., the cells were fixed in 0.5% gluteraldehyde in medium for 10 min, washed three times with DDW, once with 0.1M sodium borate buffer pH 8.5 and stained with 1% methylene blue dissolved in 0.1M borate buffer solution for 60 min. Excess dye was washed out and cell-bound dye was eluted with 200 μl/well of 0.1 M HCl. The optical density value was read at 620 nm in ELISA plate reader. The data was analyzed in Microsoft Excel, using the vehicle control as 100% proliferation. The assays were performed in triplicates. The values in table 1 represent IC50 values derived from the dose-dependent growth curves obtained.
(§2) Compounds 6, 7, 8, and 9 were tested for their inhibitory potential in cell proliferation assay. In this assay cells were exposed to increasing concentrations of the molecules (at 0.1% DMSO in all wells) a day after seeding. Medium and inhibitors were refreshed every day, and following three days of treatment, cells were fixed and stained with methylene-Blue. IC50 values were determined from the curves of the optical density against compound concentration. The assay was performed in triplicates.

[4] = system: LIM 1215; experiment: Proliferation assay LIM 1215; format: cell-based; conditions: LIM1215, Colon, 72 hours
Procedure: as §1, §2

[5] = [ATP] 2.5 μM, read-out: IC50, competition with ATP in cellular free kinase assay of IGF1R
[6] = [ATP] 5 μM, read-out: IC50, competition with ATP in cellular free kinase assay of IGF1R
[7] = [ATP] 10 μM, read-out: IC50, competition with ATP in cellular free kinase assay of IGF1R
[8] = [ATP] 20 μM, read-out: IC50, competition with ATP in cellular free kinase assay of IGF1R
[9] = [ATP] 50 μM, read-out: IC50, competition with ATP in cellular free kinase assay of IGF1R
[10] = partially purified IGF1R, 20 μM ATP, read-out: IC50 values of IGF1R activity in cellular free kinase assay

T1 sequence (P08069 31-1367, species assumed): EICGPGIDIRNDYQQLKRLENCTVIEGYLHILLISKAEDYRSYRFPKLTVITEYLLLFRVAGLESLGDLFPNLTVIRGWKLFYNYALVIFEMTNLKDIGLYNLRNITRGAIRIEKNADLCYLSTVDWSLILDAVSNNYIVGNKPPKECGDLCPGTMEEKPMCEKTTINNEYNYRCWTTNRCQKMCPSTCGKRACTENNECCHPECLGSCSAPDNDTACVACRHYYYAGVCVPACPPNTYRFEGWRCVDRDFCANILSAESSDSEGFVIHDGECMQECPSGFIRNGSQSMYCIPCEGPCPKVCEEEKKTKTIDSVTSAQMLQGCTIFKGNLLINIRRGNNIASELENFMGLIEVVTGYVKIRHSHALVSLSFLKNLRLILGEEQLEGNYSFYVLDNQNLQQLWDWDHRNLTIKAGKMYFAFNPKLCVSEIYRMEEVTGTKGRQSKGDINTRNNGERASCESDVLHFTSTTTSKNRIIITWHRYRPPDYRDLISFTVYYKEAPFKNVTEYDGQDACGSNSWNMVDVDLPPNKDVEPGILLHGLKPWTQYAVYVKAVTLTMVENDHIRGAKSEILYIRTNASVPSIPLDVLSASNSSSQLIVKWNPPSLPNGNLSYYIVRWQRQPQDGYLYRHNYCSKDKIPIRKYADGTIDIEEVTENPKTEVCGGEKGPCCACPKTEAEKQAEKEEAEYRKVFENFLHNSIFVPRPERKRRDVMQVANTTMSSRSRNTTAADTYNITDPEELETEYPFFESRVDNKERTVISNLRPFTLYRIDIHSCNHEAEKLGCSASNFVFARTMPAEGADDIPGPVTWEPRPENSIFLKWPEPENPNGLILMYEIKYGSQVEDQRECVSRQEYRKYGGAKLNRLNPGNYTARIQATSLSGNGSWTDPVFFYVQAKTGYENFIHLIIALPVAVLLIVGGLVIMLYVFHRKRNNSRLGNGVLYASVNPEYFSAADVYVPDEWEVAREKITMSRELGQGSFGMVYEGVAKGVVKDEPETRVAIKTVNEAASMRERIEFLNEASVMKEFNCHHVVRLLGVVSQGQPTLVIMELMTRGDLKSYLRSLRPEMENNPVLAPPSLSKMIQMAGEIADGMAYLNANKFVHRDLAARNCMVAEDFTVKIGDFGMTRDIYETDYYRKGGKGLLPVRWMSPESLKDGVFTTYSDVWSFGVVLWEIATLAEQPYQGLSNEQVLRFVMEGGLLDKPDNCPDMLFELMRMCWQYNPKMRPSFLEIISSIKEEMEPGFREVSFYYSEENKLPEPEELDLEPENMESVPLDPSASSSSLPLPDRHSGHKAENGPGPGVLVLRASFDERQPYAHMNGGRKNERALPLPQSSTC

Structure (SMILES) | IC50 [1, 5] [nM] | IC50 [1, 6] [nM] | IC50 [1, 7] [nM] | IC50 [1, 8] [nM] | IC50 [1, 9] [nM] | Competition with ATP (kinetic studies) [1] | IC50 [1, 10] [nM] | Inhibition of ovarian tumor growth, comparative study [2] | IC50 [3] [nM] | IC50 [4] [nM] | Growth inhibition of ovarian cancer A2780 tumors [2] [%] | Growth inhibition of ovarian A2780 tumors ([2]; tumors larger than 50 mm^3 at start) [%] | Growth inhibition of ovarian A2780 tumors ([2]; tumors larger than 470 mm^3 at start)
N#C/C(=C\c1cc(O)c(O)c(Br)c1)C(=S)NCc1cc(O)c(O)c(Br)c1 [Compound 6] | 74 | 56 | 92 | 55 | 98 | do not compete with ATP | 98 | 33% | > 10000 | > 10000 | – | – | –
N#C/C(=C\c1cc(O)c(O)c(Br)c1)C(=S)NCc1cc(O)c(O)c(O)c1 [Compound 7] | 190 | 163 | 124 | 90 | 80 | do not compete with ATP | 116 | approximately 90% | > 10000 | 6500 | 87 | – | –
N#C/C(=C\c1cc(O)c(O)c(I)c1)C(=S)NCc1cc(O)c(O)c(O)c1 [Compound 8] | 190 | 110 | 100 | 80 | 100 | do not compete with ATP | 76 | approximately 90% | > 10000 | 6400 | 87 | 82 | approximately 85%
Oc1cc(CNC(=S)/C=C/c2cc(O)c(O)c(Br)c2)cc(O)c1O [Compound 9] | – | – | – | – | – | – | 78 | approximately 90% | > 10000 | 3300 | – | – | –
